# Assay results published in patent US20160318892A1, “PRODRUG COMPOUNDS” (PROXIMAGEN LIMITED, priority 2013, published 2016).
# Where two headings read alike, the source gives them in different places.
# Key:
# [1] = Solubility in aqueous solutions; assay type: physicochemical; settings: aqueous solution
# Excerpt: In an embodiment prodrugs of the present invention are suitable for oral administration. The skilled person understands that the pH of the gastrointestinal tract changes along its length. For example, the stomach has a pH of around pH 1.5 and the GI tract after the stomach has a pH of around 5 to 7.5. For more detail see, for example, Measurement of gastrointestinal pH profiles in normal ambulant human subjects, Gut. 1988 August; 29(8): 1035-1041. Improved solubility is expected to result in improved absorption, and therefore improved oral bioavailability. Thus improved solubility at any pH value between around pH 1.5 to 8 is expected to improve oral bioavailability. Compounds of the invention were assessed for solubility in aqueous solutions having a pH of from 2 to 10. In an embodiment prodrugs of the invention have a solubility of >0.5 mg/mL in an aqueous solution having a pH of from 2 to 8. In an embodiment prodrugs have a solubility of >5.0 mg/mL, or >10.0 mg/mL, >100.0 mg/mL, or >200.0 mg/mL. In an embodiment the prodrugs have the aforementioned aqueous solubility at a pH within the range of from 4 to 8, or from 6 to 8.
# In an embodiment prodrugs of the invention are administered intravenously. High prodrug solubility is advantageous in order to reduce the volume of solution administered to the patient, and to reduce the risk of damage to the circulatory system. Solubility of >10 mg/mL is preferred. Yet more preferred is solubility of >30 mg/mL or >100.0 mg/mL. Yet more preferred is solubility of >200.0 mg/mL. The solubility is measured in an aqueous solution having a pH of from 2 to 10, which pH range is advantageous for intravenous prodrug delivery. See, for example, A guide on intravenous drug compatibilities based on their pH, Nasser S C et al./Pharmacie Globale (IJCP) 2010, 5 (01)). In an embodiment the prodrugs of the claimed invention have solubility of >10 mg/mL in an aqueous solution having a pH of from 2 to 10.
# high K+ evoked CSD [2] = settings: cats; cited from earlier work
# high K+ evoked CSD [3] = settings: rats; cited from earlier work
# [4] = system: unique stereo-selective site in rat brain; settings: cited from earlier work
# [5] = system: unique stereo-selective site in human brain; settings: cited from earlier work
structure (smiles),measurement,setting,value
"CC(=O)c1ccc2c(c1)[C@H](NC(=O)c1ccc(F)cc1)[C@@H](OP(=O)(O)O)C(C)(C)O2 [Example 1, {[(3R,4S)-6-Acetyl-4-[(4-fluorobenzene)amido]-2,2-dimethyl-3,4-dihydro-2H-1-benzopyran-3-yl]oxy}phosphonic acid]",solubility,"[1]; aqueous buffer, pH 7.0",~10000 µg/mL
"CC(=O)c1ccc2c(c1)[C@H](NC(=O)c1ccc(F)cc1)[C@@H](OCOP(=O)([O-])O)C(C)(C)O2.[Na+] [Example 2, Sodium {[(3R,4S)-6-Acetyl-4-[(4-fluorobenzene)amido]-2,2-dimethyl-3,4-dihydro-2H-1-benzopyran-3-yl]oxy}methyl hydrogen phosphate]",solubility,"[1]; aqueous buffer, pH 4.0",> 10000 µg/mL
"CC(=O)c1ccc2c(c1)[C@H](NC(=O)c1ccc(F)cc1)[C@@H](OC(=O)[C@@H](N)C(C)C)C(C)(C)O2.Cl [Example 3, (3R,4S)-6-Acetyl-4-[(4-fluorobenzene)amido]-2,2-dimethyl-3,4-dihydro-2H-1-benzopyran-3-yl (2S)-2-amino-3-methylbutanoate hydrochloride]",solubility,"[1]; pH 3.6, aqueous buffer",< 1000 µg/mL
"CC(=O)c1ccc2c(c1)[C@H](NC(=O)c1ccc(F)cc1)[C@@H](OC(=O)[C@@H](NC(=O)[C@@H](N)C(C)C)C(C)C)C(C)(C)O2.Cl [Example 4, (3R,4S)-6-Acetyl-4-[(4-fluorobenzene)amido]-2,2-dimethyl-3,4-dihydro-2H-1-benzopyran-3-yl (2S)-2-[(2S)-2-amino-3-methylbutanamido]-3-methylbutanoate hydrochloride]",solubility,"[1]; pH 4.2, aqueous buffer",> 10000 µg/mL
"CC(=O)c1ccc2c(c1)[C@H](NC(=O)c1ccc(F)cc1)[C@@H](OC(=O)CN)C(C)(C)O2.Cl [Example 5, (3R,4S)-6-Acetyl-4-[(4-fluorobenzene)amido]-2,2-dimethyl-3,4-dihydro-2H-1-benzopyran-3-yl 2-aminoacetate hydrochloride]",solubility,"[1]; pH 5.1, aqueous buffer",> 5000 µg/mL
"CC(=O)c1ccc2c(c1)[C@H](NC(=O)c1ccc(F)cc1)[C@@H](OC(=O)CNC(=O)[C@@H]1CCCN1)C(C)(C)O2.Cl [Example 6, (3R,4S)-6-Acetyl-4-[(4-fluorobenzene)amido]-2,2-dimethyl-3,4-dihydro-2H-1-benzopyran-3-yl 2-[(2S)-pyrrolidin-2-ylformamido]acetate hydrochloride]",solubility,"[1]; pH 6.1, aqueous buffer",> 10000 µg/mL
"CC(=O)c1ccc2c(c1)[C@H](NC(=O)c1ccc(F)cc1)[C@@H](OC(=O)CNC(C)C)C(C)(C)O2.Cl [Example 7, (3R,4S)-6-Acetyl-4-[(4-fluorobenzene)amido]-2,2-dimethyl-3,4-dihydro-2H-1-benzopyran-3-yl 2-[(propan-2-yl)amino]acetate hydrochloride]",solubility,"[1]; pH 3.5, aqueous buffer",< 1000 µg/mL
"CC(=O)c1ccc2c(c1)[C@H](NC(=O)c1ccc(F)cc1)[C@@H](OC(=O)OCCN1CCOCC1)C(C)(C)O2.Cl [Example 8, (3R,4S)-6-Acetyl-4-[(4-fluorobenzene)amido]-2,2-dimethyl-3,4-dihydro-2H-1-benzopyran-3-yl 2-(morpholin-4-yl)ethyl carbonate hydrochloride]",solubility,"[1]; aqueous buffer, pH 4.0",~10000 µg/mL
CC(=O)c1ccc2c(c1)[C@H](NC(=O)c1ccc(F)c(Cl)c1)[C@H](O)C(C)(C)O2 [Tonabersat],inhibition of high K+ evoked CSD,high K+ evoked CSD [2],inhibits
same,inhibition of high K+ evoked CSD,high K+ evoked CSD [3],inhibits
same,binding affinity to unique stereo-selective site,[4],high affinity
same,binding affinity to unique stereo-selective site,[5],high affinity
